According to EP2878677A1, “Activators of protein phosphatase 5” (Deutsches Zentrum für Neurodegenerative Erkrankungen e.V. …, priority 2013, dated 2015):

Target: T1, PP5 (Rattus norvegicus, UniProt P53042)
T1 construct: The full-length PP5 and its deletion variants were purified and the activity was determined; made in house; host or cells: E. coli BL21-CodonPlus (DE3)-RIL
T1 sequence (P53042 1-499): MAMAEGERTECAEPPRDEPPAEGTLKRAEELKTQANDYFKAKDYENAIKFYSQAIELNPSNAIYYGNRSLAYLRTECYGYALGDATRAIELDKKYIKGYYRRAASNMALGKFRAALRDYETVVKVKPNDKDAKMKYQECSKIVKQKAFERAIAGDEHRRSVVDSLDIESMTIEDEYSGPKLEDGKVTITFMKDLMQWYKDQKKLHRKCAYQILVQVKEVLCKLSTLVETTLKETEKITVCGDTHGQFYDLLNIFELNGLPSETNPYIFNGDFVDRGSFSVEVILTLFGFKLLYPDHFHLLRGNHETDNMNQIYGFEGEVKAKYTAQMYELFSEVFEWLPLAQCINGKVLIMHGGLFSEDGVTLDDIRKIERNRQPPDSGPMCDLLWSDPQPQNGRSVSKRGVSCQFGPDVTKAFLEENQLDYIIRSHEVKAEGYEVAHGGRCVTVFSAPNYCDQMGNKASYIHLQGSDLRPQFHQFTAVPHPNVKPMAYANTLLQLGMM
Test: pNPP-based phosphatase assay with full-length mammalian PP5
Type: biochemical
Description: Cloning and purification of PPH-5, Hsp90/DAF-21, CDC-37, YFP-Hsp90/DAF-21 were performed as described before (Gaiser et al., 2009; Gaiser et al., 2011; Gaiser et al., 2010). The purified human phosphatases PP1, PP2A and PP2B/PP3 were purified as described (Baumgrass et al., 2001; Mondragon et al., 1997; Tung et al., 1985). The expression clones of mammalian PP5, PP5-ΔN165 (166-499) and PP5-ΔC8 (1-491) were generated by PCR from plasmid-DNA containing full-length PP5 from Rattus norvegicus. PCR-products were inserted into the pET28b expression plasmid (Merck, Darmstadt, Germany) and verified by DNA sequencing (GATC Biotech, Konstanz, Germany). Proteins were expressed in BL21-CodonPlus (DE3)-RIL bacteria (Stratagene, LaJolla, USA). Bacterial cultures were grown to an OD600 of 0.8 and induced with 1 mM IPTG. Cells were disrupted using a cell disruption machine (IUL Instruments, Freiburg, Germany) and the lysate was loaded onto a HisTrap FF column (GE Healthcare, Freiburg, Germany). Protein was eluted in a buffer containing 400 mM imidazole. Eluted protein was dialyzed and applied to a ResourceQ anion exchange column (GE Healthcare, Freiburg, Germany). Finally, proteins were subjected to size exclusion chromatography on Superdex 200 PrepGrade gel filtration columns (GE Healthcare, Freiburg, Germany). Protein purity was assessed by SDS-PAGE and the molecular mass was determined by a MALDI-TOF/TOF mass spectrometer (Bruker, Bremen, Germany). Proteins were frozen in liquid nitrogen in 40 mM HEPES/KOH, pH 7.5, 20 mM KCl, 1 mM DTT and stored at -80 °C.
Phosphatase activity was followed by the conversion of para-nitrophenyl phosphate (pNPP) to para-nitophenole and absorption of the product at 410 nm (ε: 15100 cm^-1 M^-1) in a Varian Cary 100 spectrophotometer (Agilent Technologies, Boeblingen, Germany). The reaction was measured in 40 mM HEPES/KOH, 20 mM KCl, 5 mM MnCl2, 1 mM DTT, pH 7.5 and 60 mM pNPP at 20 °C if not indicated otherwise. Phosphatase concentration ranged from 50 to 500 nM in the assay. If indicated, Hsp90/DAF-21 peptide was supplemented in the assay at a concentration of 60 µM.
For characterization of the binding site of the P5SAs, deletion constructs of rat PP5 were generated. […] The full-length PP5 and its deletion variants were purified and the activity was determined in the absence and presence of 10 µM and 100 µM (45 µM in case of P5SA-5) of the substances, respectively (Figure 3A-C).

Structure (SMILES) | fold activation (at 143 µM) | fold activation (at 714 µM) | also measured
FC(F)(F)c1c2c(nc3c(-c4ccc(Cl)cc4)cnn13)CCC2 [P5SA-1] | 2.7 fold |  | 
COc1ccc(-c2nc(Cc3ccc(Cl)cc3)no2)cc1OC [P5SA-2] |  | 13.7 fold | 
CN1CCc2c(sc(-n3cccc3)c2CNC(=O)NC23CC4CC(CC(C4)C2)C3)C1 [P5SA-3] |  | 7.0 fold | 
O=c1cc2nc(-c3ccc(F)cc3)nc(SCc3ccc(Br)cc3)n2[nH]1 [P5SA-4] | 16.4 fold |  | 
CNC(=O)c1c(NC(=O)COCC(=O)Nc2sc3c(c2C(=O)NC)CCC3)sc2c1CCC2 [P5SA-5] |  |  | fold activation (at 45 µM): 22.1 fold; Kd (rat PP5, read-out: binding constant (affinity towards the mammalian protein)): 10 ± 5 µM
